Counter-ions that a name gives are not always drawn.
Test system: human primary T-cells, IL-2 stimulated proliferation (JAK-1 and JAK-3 dependent; reported as JAK3 activity)
Assay: Human primary T-cell proliferation stimulated by IL-2 (Example 3)
Type: cell-based
Conditions: Homo sapiens, T-cell, tested under conditions described in Example 3 (IL-2 stimulated human primary T-cell proliferation); read-out: ability to inhibit JAK3 activity, IC50 range (Table V)
Text: The activity of the compounds described herein can further be characterized by assaying the effect of the 2,4-pyrimidinediamine compounds described herein on the proliferative response of primary human T-cells. In this assay, primary human T-cells derived from peripheral blood and pre-activated through stimulation of the T-cell receptor and CD28, proliferate in culture in response to the cytokine Interleukin-2 (IL-2). This proliferative response is dependent on the activation of JAK1 and JAK3 tyrosine kinases, which phosphorylate and activate the transcription factor Stat-5. The primary human T-cells are incubated with the 2,4-pyrimidinediamine compounds in the presence of IL-2 for 72 hours, and at the assay endpoint intracellular ATP concentrations are measured to assess cell viability. A reduction in cell proliferation compared to control conditions is indicative of inhibition of the JAK kinase pathway.
Primary human T-cells derived from peripheral blood and pre-activated through stimulation of the T-cell receptor and CD28, proliferate in vitro in response to the cytokine Interleukin-2 (IL-2). This proliferative response is dependent on the activation of JAK-1 and JAK-3 tyrosine kinases, which phosphorylate and activate the transcription factor Stat-5.
Human primary T cells were prepared as follows. […] The lymphocytes at the serum: ficoll interface were recovered and washed twice with 5 volumes of PBS. […] The primary T-cells were stimulated for 3-4 days, then transferred to a fresh flask and maintained in RPMI with 10% FBS and 40 U/mL IL-2.
The day prior to the assay set up, primary T-cells were centrifuged and resuspended in fresh RPMI with 10% FBS but without IL-2 and starved overnight. For the assay, the primary T-cells were centrifuged and resuspended Yssel's medium at 2×10^6 cells/mL. 50 μL of cell suspension containing 80 U/mL IL-2 was added to each well of a flat bottom 96 well black plate. For the unstimulated control, IL-2 was omitted from the last column on the plate. […] 50 μL of 2× compound was added per well in duplicate and the cells were allowed to proliferate for 72 hours at 37° C.
Proliferation was measured using CellTiter-Glo® Luminescent Cell Viability Assay (Promega), which determines the number of viable cells in culture based on quantitation of the ATP present, as an indicator of metabolically active cells. The substrate was thawed and allowed to come to ambient temperature. After mixing the Cell Titer-Glo reagent and diluent together, 100 μL was added to each well. The plates were mixed on an orbital shaker for two minutes to induce lysis and incubated at ambient temperature for an additional ten minutes to allow the signal to equilibrate.
The compound designations in Table V are consistent with those of Tables I-IV above.

`N#Cc1cccc(Nc2ncc(F)c(Nc3ccc4oc(=O)[nH]c4c3)n2)c1` [Compound I-44, N4-(benzo[d]oxazol-2(3H)-on-5-yl)-N2-(3-cyanophenyl)-5-fluoropyrimidine-2,4-diamine] and `N#Cc1ccc(Nc2ncc(F)c(Nc3ccc4oc(=O)[nH]c4c3)n2)cc1` [Compound I-45, N4-(benzo[d]oxazol-2(3H)-on-5-yl)-N2-(4-cyanophenyl)-5-fluoropyrimidine-2,4-diamine] cannot be ordered by IC50: < 500 nM for the first, < 500 nM for the second.

Compared with `Cc1cnc(Nc2ccc(NS(C)(=O)=O)cc2)nc1Nc1ccc2[nH]c(=O)[nH]c2c1` [Compound I-50, N2-(4-(methylsulfonylamino)phenyl)-N4-(1H-benzo[d]imidazol-2(3H)-on-5-yl)-5-methylpyrimidine-2,4-diamine], `CS(=O)(=O)Nc1ccc(Nc2ncc(F)c(Nc3ccc4[nH]c(=O)[nH]c4c3)n2)cc1` [Compound I-51, N2-(4-(methylsulfonylamino)phenyl)-N4-(1H-benzo[d]imidazol-2(3H)-on-5-yl)-5-fluoropyrimidine-2,4-diamine] is higher in IC50: < 500 nM for the first, 500 to 5000 nM for the second.

For `Cc1cnc(Nc2cccc(NS(C)(=O)=O)c2)nc1Nc1ccc2[nH]c(=O)[nH]c2c1` [Compound I-54, N2-(3-(methylsulfonylamino)phenyl)-N4-(1H-benzo[d]imidazol-2(3H)-on-5-yl)-5-methylpyrimidine-2,4-diamine], the IC50 was < 500 nM.

Same assay, conditions: tested under conditions described in Example 3 (IL-2 stimulated human primary T-cell proliferation); read-out: ability to inhibit JAK3 activity, IC50 range (Table V)

Compared with `O=c1[nH]c2ccc(Nc3nc(Nc4cccc(S(=O)(=O)N5CCOCC5)c4)ncc3F)cc2[nH]1` [Compound I-32, N4-(benzimidazolin-2-on-5-yl)-N2-(3-(morpholinosulfonyl)phenyl)-5-fluoropyrimidine-2,4-diamine], `O=c1[nH]c2cc(Nc3nc(Nc4cccc(N5CCOCC5)c4)ncc3F)ccc2o1` [Compound I-47, N4-(benzo[d]oxazol-2(3H)-on-5-yl)-N2-((3-morpholinyl)phenyl)-5-fluoropyrimidine-2,4-diamine] is lower in IC50: 500 to 5000 nM for the first, < 500 nM for the second.

`Cc1cnc(Nc2cccc(S(C)(=O)=O)c2)nc1Nc1ccc2oc(=O)n(COP(=O)(O)O)c2c1` [Compound I-33, N4-(3-phosphorylmethylbenzo[d]oxazol-2(3H)-on-5-yl)-N2-((3-methylsulfonyl)phenyl)-5-methylpyrimidine-2,4-diamine] and `Cc1cnc(Nc2cccc(S(C)(=O)=O)c2)nc1Nc1ccc2c(c1)n(C)c(=O)n2C` [Compound I-36, N4-(1,3-dimethylbenzimidazolin-2-on-5-yl)-N2-((3-methylsulfonyl)phenyl)-5-methylpyrimidine-2,4-diamine] cannot be ordered by IC50: < 500 nM for the first, < 500 nM for the second.

`Cc1cnc(Nc2cccc(S(N)(=O)=O)c2)nc1Nc1ccc2c(c1)n(C)c(=O)n2C` [Compound I-34, N4-(1,3-dimethylbenzimidazolin-2-on-5-yl)-N2-((3-aminosulfonyl)phenyl)-5-methylpyrimidine-2,4-diamine] and `Cn1c(=O)n(C)c2cc(Nc3nc(Nc4cccc(S(N)(=O)=O)c4)ncc3F)ccc21` [Compound I-39, N4-(1,3-dimethylbenzimidazolin-2-on-5-yl)-N2-((3-aminosulfonyl)phenyl)-5-fluoropyrimidine-2,4-diamine] cannot be ordered by IC50: < 500 nM for the first, < 500 nM for the second.

`Cc1cnc(Nc2ccc(S(N)(=O)=O)cc2)nc1Nc1ccc2c(c1)n(C)c(=O)n2C` [Compound I-35, N4-(1,3-dimethylbenzimidazolin-2-on-5-yl)-N2-((4-aminosulfonyl)phenyl)-5-methylpyrimidine-2,4-diamine] and `Cn1c(=O)n(C)c2cc(Nc3nc(Nc4ccc(S(N)(=O)=O)cc4)ncc3F)ccc21` [Compound I-40, N4-(1,3-dimethylbenzimidazolin-2-on-5-yl)-N2-((4-aminosulfonyl)phenyl)-5-fluoropyrimidine-2,4-diamine] cannot be ordered by IC50: > 10000 nM for the first, > 10000 nM for the second.

First: Cc1cnc(Nc2cccc(NS(C)(=O)=O)c2)nc1Nc1ccc2c(c1)n(C)c(=O)n2C [Compound I-37, N4-(1,3-dimethylbenzimidazolin-2-on-5-yl)-N2-((3-methylsulfonylamino)phenyl)-5-methylpyrimidine-2,4-diamine]
Second: Cn1c(=O)n(C)c2cc(Nc3nc(Nc4cccc(NS(C)(=O)=O)c4)ncc3F)ccc21 [Compound I-42, N4-(1,3-dimethylbenzimidazolin-2-on-5-yl)-N2-((3-methylsulfonylamino)phenyl)-5-fluoropyrimidine-2,4-diamine]
The IC50 of the first is lower: < 500 nM for the first, 500 to 5000 nM for the second.

Compared with `Cc1cnc(Nc2ccc(NS(C)(=O)=O)cc2)nc1Nc1ccc2c(c1)n(C)c(=O)n2C` [Compound I-38, N4-(1,3-dimethylbenzimidazolin-2-on-5-yl)-N2-((4-methylsulfonylamino)phenyl)-5-methylpyrimidine-2,4-diamine], `Cn1c(=O)n(C)c2cc(Nc3nc(Nc4ccc(NS(C)(=O)=O)cc4)ncc3F)ccc21` [Compound I-43, N4-(1,3-dimethylbenzimidazolin-2-on-5-yl)-N2-((4-methylsulfonylamino)phenyl)-5-fluoropyrimidine-2,4-diamine] is higher in IC50: < 500 nM for the first, 500 to 5000 nM for the second. The first is the more potent here.

First: Cn1c(=O)n(C)c2cc(Nc3nc(Nc4cccc(S(C)(=O)=O)c4)ncc3F)ccc21 [Compound I-41, N4-(1,3-dimethylbenzimidazolin-2-on-5-yl)-N2-((3-methylsulfonyl)phenyl)-5-fluoropyrimidine-2,4-diamine]
Second: Cn1c(=O)oc2cc(Nc3nc(Nc4cccc(S(C)(=O)=O)c4)ncc3F)ccc21 [Compound I-59, N2-((3-methylsulfonyl)phenyl)-N4-(3-methyl-2-oxo-2,3-dihydrobenzo[d]oxazol-6-yl)-5-fluoropyrimidine-2,4-diamine]
The IC50 of the first is higher: 500 to 5000 nM for the first, < 500 nM for the second.

`Cc1cnc(Nc2cccc(N3CCOCC3)c2)nc1Nc1ccc2oc(=O)[nH]c2c1` [Compound I-46, N4-(benzo[d]oxazol-2(3H)-on-5-yl)-N2-((3-morpholinyl)phenyl)-5-methylpyrimidine-2,4-diamine] and `Cc1cnc(Nc2cccc(N3CCOCC3)c2)nc1Nc1ccc2[nH]c(=O)oc2c1` [Compound I-48, N4-(benzo[d]oxazol-2(3H)-on-6-yl)-N2-((3-morpholinyl)phenyl)-5-methylpyrimidine-2,4-diamine] cannot be ordered by IC50: < 500 nM for the first, < 500 nM for the second.

`Cc1cnc(Nc2cccc(N3CCOCC3)c2)nc1Nc1ccc2c(c1)oc(=O)n2C` [Compound I-49, N4-(3-methylbenzo[d]oxazol-2(3H)-on-6-yl)-N2-((3-morpholinyl)phenyl)-5-methylpyrimidine-2,4-diamine] and `Cn1c(=O)oc2cc(Nc3nc(Nc4cccc(S(N)(=O)=O)c4)ncc3F)ccc21` [Compound I-57, N2-((3-aminosulfonyl)phenyl)-N4-(3-methyl-2-oxo-2,3-dihydrobenzo[d]oxazol-6-yl)-5-fluoropyrimidine-2,4-diamine] cannot be ordered by IC50: < 500 nM for the first, < 500 nM for the second.

`Cc1cnc(Nc2ccc(NS(C)(=O)=O)cc2)nc1Nc1ccc2oc(=O)[nH]c2c1` [Compound I-52] and `CS(=O)(=O)Nc1ccc(Nc2ncc(F)c(Nc3ccc4oc(=O)[nH]c4c3)n2)cc1` [Compound I-53] cannot be ordered by IC50: < 500 nM for the first, < 500 nM for the second.

`Cc1cnc(Nc2cccc(NS(C)(=O)=O)c2)nc1Nc1ccc2oc(=O)[nH]c2c1` [Compound I-55, N4-(benzo[d]oxazol-2(3H)-on-5-yl)-N2-(3-methylsulfonylamino)phenyl)-5-methylpyrimidine-2,4-diamine formate salt] and `CS(=O)(=O)Nc1cccc(Nc2ncc(F)c(Nc3ccc4oc(=O)[nH]c4c3)n2)c1` [Compound I-56] cannot be ordered by IC50: < 500 nM for the first, < 500 nM for the second.

`Cn1c(=O)oc2cc(Nc3nc(Nc4ccc(S(N)(=O)=O)cc4)ncc3F)ccc21` [Compound I-58] and `Cn1c(=O)oc2cc(Nc3nc(Nc4ccc(S(C)(=O)=O)cc4)ncc3F)ccc21` [Compound I-60] cannot be ordered by IC50: > 10000 nM for the first, > 10000 nM for the second.

First: Cn1c(=O)oc2cc(Nc3nc(Nc4cccc(NS(C)(=O)=O)c4)ncc3F)ccc21 [Compound I-61, N2-((3-methylsulfonylamino)phenyl)-N4-(3-methyl-2-oxo-2,3-dihydrobenzo[d]oxazol-6-yl)-5-fluoropyrimidine-2,4-diamine]
Second: Cn1c(=O)oc2cc(Nc3nc(Nc4ccc(NS(C)(=O)=O)cc4)ncc3F)ccc21 [Compound I-62, N2-((4-methylsulfonylamino)phenyl)-N4-(3-methyl-2-oxo-2,3-dihydrobenzo[d]oxazol-6-yl)-5-fluoropyrimidine-2,4-diamine]
The IC50 of the first is lower: < 500 nM for the first, 500 to 5000 nM for the second.
